In PMC4506530, “Small-Molecule Inhibitors That Target Protein–Protein Interactions in the RAD51 Family of Recombinases” (Chemmedchem, 2014):
Like-named read-outs stand apart in the source and are kept apart here.

Assays:
HumRADA2 [1] = target: T1, HumRADA2 (Pyrococcus furiosus, UniProt O74036, D220A/DEL288-314/E219S/I169M/K221M/V202Y/Y201A); details: previously published fragment screening, humanised RadA, cited from earlier work
HumRADA2 [2] = target: T1, HumRADA2; test: Isothermal titration calorimetry (ITC), direct binding to HumRADA2; details: for LLE: LLE=pKD−clog P, clog P calculated with Instant JChem (ChemAxon); for -TDS / DG / DH: ITC thermodynamic binding profile, Table S1; for KD: ITC, substituted tryptamine sulfonamide series (Table 2), error from fitting a single-site binding model
From the text: We previously published fragment-screening results using a humanised RAD51 surrogate from Pyrococcus furiosus, which we refer to as HumRADA2 (previously referred to as MAYSAM RadA).[23] In this surrogate protein, the N-terminal domain with the oligomerisation sequence was removed to monomerise the protein and expose the FxxA binding site for screening, and six surface residues were mutated around the Phe pocket in order to humanise the protein in this region.
(§1) Supplemental Experimental Procedures
(§2) C-terminal ATPase domain of P. furiosus RadA (residues 108–349, with deletion of the “L2” loop residues 288–314) was expressed in E.coli and purified as described before using ion-exchange ad size exclusion chromatographies.[1] Purified protein was concentrated to 0.5 mM, flash frozen in liquid nitrogen and stored at -80C. Protein concentration was determined by measuring absorbance at 280 nm in 6M GndHCl and using calculated absorption coefficient […]
(§3) Isothermal Titration Calorimetry
(§4) ITC experiments were performed at 25°C on a MicroCal ITC-200 (GE Healthcare).
(§5) HumRadA2 (humanized RadA) (600 µM in 20 mM MES pH 6.0 with 100 mM NaCl and 0.5 mM EDTA was diluted with Tris buffer (200 mM, pH 7.5 with 100 mM NaCl), and DMSO was added to match to the ligand solution. In titrations with ATP, 5 mM MgCl2 was included in the ligand buffer and the protein buffer. Compounds in DMSO were diluted into the same Tris buffer to give a final concentration of 0.6–10 mM ligand in 10% DMSO and Tris buffer. Care was taken to ensure that the DMSO concentrations in the protein and ligand solutions were well matched so as to avoid artefacts arising from heats of dilution of DMSO. In a typical experiment, protein (60 µM) was loaded in the sample cell, and 16 injections (2.4 µL) of 4.8 s duration were made at 80 s intervals from a syringe loaded with ligand (0.6–10 mM) and rotating at 1000 rpm. In all titrations, an initial injection of ligand (0.4 µL) was made and discarded during data analysis. Control titrations of ligand to buffer were performed and […]
(§6) The thermodynamic parameters were obtained by fitting the data to a single-site-binding model by using Origin software and fixing the stoichiometry as 1.0 for […]

HumRADA2 [3] = target: T1, HumRADA2; test: Competitive ITC experiments to HumRADA2 (ligand titrated in the presence of compound); format: binding; details: protein pre-incubated with compound (200 μM 5 c)
Procedure: The KD measurement of each ligand was then repeated, but in the presence of 200 μM 5 c (bottom row titrations, Figure 2 B).
as §1, §2, §3, §4, §5, §6

[4] = tryptophan ester series (Table 1)
[5] = substituted tryptamine series (Table 2)
[6] = ITC against apo protein, in the absence of 5 c, read-out: KD

Molecule | Kd (HumRADA2 [2]) [µM] | LLE (HumRADA2 [2]; [4]) | LE (ligand efficiency) (HumRADA2 [2]; [4]) [kcal mol−1 per heavy atom] | LLE (HumRADA2 [2]; [5]) | LE (ligand efficiency) (HumRADA2 [2]; [5]) [kcal mol−1 per heavy atom] | also measured
COC(=O)c1cccc2[nH]ccc12 [4-methyl ester indole] | – | – | – | – | – | Kd (HumRADA2 [1]; read-out: KD): 1300 µM
Cl.N[C@@H](Cc1c[nH]c2ccccc12)C(=O)Oc1ccccc1 [5 a] | 190 ± 5 | 0.7 | 0.24 | – | – | –
Cl.N[C@@H](Cc1c[nH]c2ccccc12)C(=O)OCc1ccccc1 [5 b] | 200 ± 8 | 0.7 | 0.23 | – | – | –
Cl.N[C@@H](Cc1c[nH]c2ccccc12)C(=O)OCCCc1ccccc1 [5 d] | 160 ± 7 | 0.02 | 0.22 | – | – | –
N[C@@H](Cc1c[nH]c2ccccc12)C(=O)NCCc1ccccc1 [5 e] | > 200 | – | – | – | – | –
Cl.N[C@@H](Cc1c[nH]c2ccccc12)C(=O)OCCc1ccccc1F [5 f] | 25 ± 5 | 1.1 | 0.26 | – | – | –
Cl.N[C@@H](Cc1c[nH]c2ccccc12)C(=O)OCCc1ccccc1O [5 g] | 27 ± 12 | 1.5 | 0.26 | – | – | –
Cc1ccccc1CCOC(=O)[C@@H](N)Cc1c[nH]c2ccccc12.Cl [5 h] | 30 ± 9 | 0.7 | 0.26 | – | – | –
Cc1cccc(CCOC(=O)[C@@H](N)Cc2c[nH]c3ccccc23)c1.Cl [5 i] | 30 ± 7 | 0.7 | 0.26 | – | – | –
Cc1ccc(CCOC(=O)C(N)Cc2c[nH]c3ccccc23)cc1 (stereo not shown) [5 j] | 22 ± 4 | 0.8 | 0.26 | – | – | –
COc1ccc(CCOC(=O)[C@@H](N)Cc2c[nH]c3ccccc23)cc1 [5 k] | > 200 | – | – | – | – | –
N[C@@H](Cc1c[nH]c2ccccc12)C(=O)OCCc1ccc(Br)cc1 [5 l] | > 200 | – | – | – | – | –
Cl.N[C@@H](Cc1c[nH]c2ccccc12)C(=O)OCCC1CCCCC1 [5 m] | 28 ± 9 | 0.8 | 0.27 | – | – | –
Cl.N[C@@H](Cc1c[nH]c2ccccc12)C(=O)OCCc1c[nH]c2ccccc12 [5 n] | 35 ± 9 | 1.0 | 0.23 | – | – | –
O=C(NC(Cc1c[nH]c2ccccc12)C(=O)OCCc1ccccc1)c1ccccc1 (stereo not shown) [6 a] | 3 ± 1 | 0.5 | 0.24 | – | – | -TDS (HumRADA2 [2]): -4.2 kcal/mol; DG (HumRADA2 [2]): -7.6 kcal/mol; DH (HumRADA2 [2]): -3.4 kcal/mol
CC(=O)N[C@@H](Cc1c[nH]c2ccccc12)C(=O)OCCc1ccccc1F [6 b] | 18 ± 1 | 1.5 | 0.25 | – | – | –
O=C(N[C@@H](Cc1c[nH]c2ccccc12)C(=O)OCCc1ccccc1)c1cccc([N+](=O)[O-])c1 [6 c] | > 200 | – | – | – | – | –
O=C(NC(Cc1c[nH]c2ccccc12)C(=O)OCCc1ccccc1)C1CCCCC1 (stereo not shown) [6 d] | > 200 | – | – | – | – | –
O=C(CCc1ccccc1)N[C@@H](Cc1c[nH]c2ccccc12)C(=O)OCCc1ccccc1 [6 e] | > 200 | – | – | – | – | –
O=S(=O)(NCCc1c[nH]c2ccccc12)c1ccccc1 [7 a] | 28 ± 6 | – | – | 1.6 | 0.30 | –
O=S(=O)(Cc1ccccc1)NCCc1c[nH]c2ccccc12 [7 b] | > 200 | – | – | – | – | KD (HumRADA2 [2]): No activity was detectable
O=S(=O)(NCCc1c[nH]c2ccccc12)c1ccc(Br)cc1 [7 c] | 92 ± 22 | – | – | 0.4 | 0.25 | –

Molecule | Kd (HumRADA2 [2]) [µM] | LLE (HumRADA2 [2]; [4]) | LE (ligand efficiency) (HumRADA2 [2]; [4]) [kcal mol−1 per heavy atom] | LLE (HumRADA2 [2]; [5]) | LE (ligand efficiency) (HumRADA2 [2]; [5]) [kcal mol−1 per heavy atom] | also measured
O=S(=O)(NCCc1c[nH]c2ccccc12)c1ccccc1Br [7 d] | 3.1 ± 0.1 | – | – | 1.8 | 0.34 | –
O=[N+]([O-])c1cccc(S(=O)(=O)NCCc2c[nH]c3ccccc23)c1 [7 e] | 18 ± 4 | – | – | 1.9 | 0.27 | –
Nc1cccc(S(=O)(=O)NCCc2c[nH]c3ccccc23)c1 [7 f] | 31 ± 6 | – | – | 2.4 | 0.28 | –
COc1ccc(S(=O)(=O)NCCc2c[nH]c3ccccc23)cc1 [7 g] | 120 ± 10 | – | – | 1.2 | 0.23 | –
CS(=O)(=O)NCCc1c[nH]c2ccccc12 [7 i] | > 200 | – | – | – | – | KD (HumRADA2 [2]): No activity was detectable
O=S(=O)(NCCc1c[nH]c2ccccc12)c1cccs1 [7 j] | 16 ± 6 | – | – | 1.9 | 0.33 | –
O=S(=O)(NCCc1c[nH]c2ccccc12)c1ccc(Br)s1 [7 k] | 10 ± 1 | – | – | 1.2 | 0.32 | –
O=S(=O)(NCCc1c[nH]c2ccccc12)c1ccc(Cl)s1 [7 l] | 13 ± 1 | – | – | 1.3 | 0.32 | –
O=S(=O)(NCCc1c[nH]c2ccccc12)c1cc(Br)c(Cl)s1 [7 m] | 1.3 ± 0.1 | – | – | 1.5 | 0.36 | -TDS (HumRADA2 [2]): -2.7 kcal/mol; DG (HumRADA2 [2]): -8.1 kcal/mol; DH (HumRADA2 [2]): -5.4 kcal/mol; competition with binding of the RadA self-oligomerisation peptide (HumRADA2 [3]): blockage of the binding
O=S(=O)(NCCc1c[nH]c2ccccc12)c1c(Cl)sc(Cl)c1Br [7 n] | 2.3 ± 0.4 | – | – | 0.6 | 0.33 | –
O=S(=O)(NCCc1c[nH]c2ccccc12)c1cc(Br)c(Br)s1 [7 o] | 67 ± 29 | – | – | −0.4 | 0.27 | –
O=S(=O)(NCCc1c[nH]c2ccccc12)c1cc2ccccc2s1 [7 p] | 1.6 ± 0.6 | – | – | 1.8 | 0.33 | –
Cc1noc(C)c1S(=O)(=O)NCCc1c[nH]c2ccccc12 [7 q] | 110 ± 12 | – | – | 2.4 | 0.25 | –
O=S(=O)(NCCc1c[nH]c2ccccc12)c1ccco1 [7 r] | 18 ± 2 | – | – | 2.6 | 0.32 | –
Cn1cnc(S(=O)(=O)NCCc2c[nH]c3ccccc23)c1 [7 s] | 420 ± 74 | – | – | 1.8 | 0.22 | –
Nc1ncnc2c1ncn2[C@@H]1O[C@H](COP(=O)(O)OP(=O)(O)OP(=O)(O)O)[C@@H](O)[C@H]1O [ATP, reference compound] | – | – | – | – | – | Kd (HumRADA2 [2]; [6]): 2.5 µM
COC(=O)[C@@H](N)Cc1c[nH]c2ccccc12 [compound 1, L-tryptophan methyl ester] | – | 1.9 | 0.28 | – | – | -TDS (HumRADA2 [2]): 2.0 kcal/mol; DG (HumRADA2 [2]): -4.4 kcal/mol; DH (HumRADA2 [2]): -6.4 kcal/mol; Kd (HumRADA2 [1]): 570 µM
CNC(=O)C(N)Cc1c[nH]c2ccccc12 (stereo not shown) [compound 2] | 1500 ± 24 | 2.2 | 0.24 | – | – | -TDS (HumRADA2 [2]): 1.3 kcal/mol; DG (HumRADA2 [2]): -3.8 kcal/mol; DH (HumRADA2 [2]): -5.1 kcal/mol
COC(=O)C(Cc1c[nH]c2ccccc12)NC(C)=O (stereo not shown) [compound 3] | 810 ± 19 | 2.0 | 0.22 | – | – | -TDS (HumRADA2 [2]): 0.9 kcal/mol; DG (HumRADA2 [2]): -4.2 kcal/mol; DH (HumRADA2 [2]): -5.1 kcal/mol
CNC(=O)C(Cc1c[nH]c2ccccc12)NC(C)=O (stereo not shown) [compound 4] | 890 ± 15 | 2.6 | 0.22 | – | – | -TDS (HumRADA2 [2]): 1.6 kcal/mol; DG (HumRADA2 [2]): -4.2 kcal/mol; DH (HumRADA2 [2]): -5.8 kcal/mol
c1ccc2[nH]ncc2c1 [indazole] | – | – | – | – | – | Kd (HumRADA2 [1]): 1000 µM
Ac-FHTA-NH2 [reference compound] | – | – | – | – | – | Kd (HumRADA2 [2]; [6]): 250 µM; Kd (HumRADA2 [1]; read-out: KD): 250 µM
